Laboratory results as given in patent US6231894A, “Treatments based on discovery that nitric oxide synthase is a paraquat diaphorase” (Duke University, priority 1999, dated 2001).

How the values were obtained:
[1] = Therapeutic use of NO-derivatized L-NAME variant; format: in vivo; conditions: nitrite ester variant
From the text: The invention is explained and illustrated by the following background examples and working examples. In the examples the NO-derivatized LNAME is the compound of formula (I) where R^3 is CH3 and R^1 is --(CH2)2 --ONO2. This compound is made by starting with N^ω -nitro-α-(2-hydroxyethyl)-L-arginine made as described above, forming the tert-butyloxycarbonyl derivative, dissolving in methanol, adding […], using non-aqueous trifluoroacetic acid to remove the protecting group and converting to the nitrate ester.

solid tumor = assay: Working Example VII: solid tumor patient; format: in vivo, human; conditions: treatment for seven days
Method: A person is given the anti-tumor agent 5,6 dimethylxanthemone-4-acetic acid (5,6 MEXAA) to treat a solid tumor identified by biopsy on the left lower extremity, and lung. […] At this time, the patient is treated with intravenous infusion of paraquat (4 milligram per kilogram) for seven cycles.

[2] = molecular target: T1, Recombinant rat neuronal nitric oxide synthase (NOS1) (Rattus norvegicus, UniProt P29476); assay: NADPH oxidation (paraquat diaphorase activity) by recombinant rat neuronal nitric oxide synthase; format: biochemical; conditions: NOS inhibitor 1 mM, FIG. 2(a); for effect on paraquat-stimulated NADPH oxidation: 25 μM paraquat; for effect on basal NADPH oxidation: no paraquat
T1 construct: purchased Oxis, Portland, Oreg
Method: Recombinant rat neuronal nitric oxide synthase (NOS1, Oxis, Portland, Oreg.), a constitutive enzyme, was used to assay NADPH oxidation in the presence of increasing concentrations of paraquat. Reactions (0.2 ml) were performed in bis-tris propane buffer (40 mM) containing L-arginine (1 mM), CaCl2 (1.2 mM), EDTA (0.9 mM), NADPH (0.35 mM), dithiothreitol (3 mM), tetrahydrobiopterin (4 μM), catalase (1 μg/ml) and calmodulin (200 U/ml) at pH 7.4. Reactions were initiated by the addition of 1.5 U of NOS1, and the oxidation of NADPH was continuously monitored at 340 nm for 1 minute at 37° C. in a plate reader. The rate of NOS-mediated NADPH oxidation was determined using an extinction coefficient of 6.22 mM^-1 cm^-1 after subtracting the baseline of NADPH oxidation.
The experiment of Background Example 1 for NADPH oxidation was carried out in the presence and absence of 25 μM paraquat, without any NOS inhibitor (control), in the presence of L-NAME (1 mM) or in the presence of 1 mM L-NMMA. […] Only L-NAME shut down the NADPH oxidase activity.

[3] = tested on: CPA-47 endothelial cell line; assay: LDH release from endothelial cells (cytotoxicity); format: cell-based; conditions: increasing inhibitor concentrations with 2 mM paraquat, 24 hours; FIG. 2(b)
Method: To test whether the above effect was present in intact cells, endothelial cell cultures, constitutively expressing NOS3 protein as determined by western blot analysis, were treated with 2 mM paraquat in the presence of increasing concentrations of either L-NAME or L-NMMA.
The endothelial cells were obtained as follows: CPA-47 endothelial cell line (CRL-1733) was purchased from American Type Culture Collection (Manassas, Va.). Endothelial cells were grown in T-75 flasks containing Ham's F-12 K medium supplemented by 1 mM […] and 10% equine serum (Gibco-BRL, Grand Island, N.Y.). Endothelial cells were plated at 3.5×10^4 cells/well in 24-well plates and experiments were performed 48 hours later when cells were near confluence. Medium was changed to minimal essential medium without serum supplement. Endothelial cells were from passages 30-36.
Cytotoxicity was measured as the percent release of LDH and compared to vehicl-treated cells (basal). The percent release of cytosolic lactate dehydrogenase (LDH) into the culture medium was used to assess the integrity of the cell membrane. LDH activity was measured by following the loss of NADH at 340 nm as described in Day, B. J., et al., J. Pharmacol. Exp. Ther. 275, 1227-1232 (1995). The percent release of LDH into the culture medium 24 hours after the paraquat treatment was used to assess cell injury.

Rabbit aortic rings [4] = assay: Acetylcholine-induced (EDRF) relaxation of aortic rings; conditions: Oryctolagus cuniculus; L-NAME (2 mM), acetylcholine, phenylephrine 1 μM; FIG. 3(a); read-out: inhibition of the relaxation response
Method: Rabbit aortic rings were treated with increasing concentrations of paraquat or L-NAME (2 mM) prior to initiating a constriction response with 1 μM phenylephrine (initial contraction).
(§1) New Zealand white male rabbits weighting 3-4 kg were anaesthetized with phenobarbital (30 mg/kg/iv). The descending thoracic aorta was isolated and placed in Krebs-Henseleit buffer (pH 7.4) and stored at 4° C. until used. The vessels were cut into 5 mm rings and submerged in 25 ml double jacketed tissue baths containing Krebs-Henseleit buffer bubbled with 95% oxygen and 5% carbon dioxide at 37° C. Rings were hung on stainless steel stirrups connected to calibrated force transducers. Rings were equilibrated with 2 g resting tension for 1 hour before use and contracted with phenylephrine (1 μM). Rings were incubated with paraquat for 15 minutes before acetylcholine-induced or exogenous relaxations were performed.
Endothelial-derived relaxing factor (EDRF) responses were initiated by addition of acetylcholine.

[5] = Working Example I: patient exposed to paraquat; format: in vivo, human; conditions: L-NAME IV 0.1 mg per kilogram per minute
Method: A person presents complaining of shortness of breath after working with paraquat. […] An intravenous line is inserted and the patient is started on IV infusion of 0.1 mg per kilogram per minute L-NAME. […] Over the following two days they are weaned off L-NAME.

[6] = Working Example III: stroke patient; format: in vivo, human
From the text: A person presents with confusion and weakness in the left arm. […] The L-NAME is stopped and the patient is given an NO derivatized L-NAME compound at 0.1 milligram per kilogram per minute IV which lowers the blood pressure to 170/100.

[7] = Working Example IX: breast cancer patient with adriamycin toxicity; format: in vivo, human
From the text: A person with metastatic breast cancer receives adriamycin in the standard regimen. […] They are begun on the nitric oxide synthase inhibitor L-NAME 0.5 milligrams per kilogram per minute and their systolic blood pressure is then titrated to 100-120 mm Hg. Over the following two weeks, their ejection fraction improves to 50% and the drug is stopped.

[8] = Working Example X: embolic stroke patient; format: in vivo, human; conditions: 10 mg IV bolus followed by 4.5 mg per kilogram per minute; L-NMMA 30 minutes, L-NAME following day
Method: A person with middle cerebral arterial embolic stroke presents to the Emergency Room unconscious. […] After 30 minutes the therapy is stopped and they receive L-NAME at the same dose.

[9] = Working Example IV: patient with E. Coli bacteremia; format: in vivo, human
Method: A person with E. Coli bacteremia presents with a fever of 101° F. and a blood pressure of 70/50. […] The drug is stopped and they are begun on NO-derivatized L-NAME at 0.1 mg/kg/minute. […] Blood pressure rises to 100/80.

[10] = Working Example XIV: congestive heart failure and COPD patient; format: in vivo, human; conditions: 10 milligram per kilogram IV bolus and IV drip 0.5 milligrams per kilograms per minute
From the text: A patient with congestive heart failure and COPD presents acutely short of breath. They are intubated for respiratory failure. […] Their FEV1 is 0.8. The patient has a protracted hospital course and attempts to wean them from the ventilator are unsuccessful. They are then started on 10 milligram per kilogram IV bolus of L-NMMA and an intravenous drip at 0.5 milligrams per kilograms per minute.

breast cancer = assay: Working Examples XI and XII: breast cancer patient; format: in vivo, human
Method: A person presents with breast cancer and is treated with standard regimen including adriamycin. […] They are given an infusion of a temperature-sensitive liposome encapsulated nitric oxide synthase, which is released in to the tumor by local heat (40-42° centigrate).
The adriamycin infusion in Example X after liposome encapsulated nitric oxide synthase treatment is replaced by 2 mg per day of diquat for six days.

Rabbit aortic rings [11] = assay: Exogenous NO-induced relaxation of aortic rings; conditions: 2 mM paraquat, phenylephrine 1 μM; FIG. 3(b)
Method: as §1
In another case, rabbit aortic rings were constricted with 1 μM phenylephrine (initial contraction) and relaxed with increasing concentration of NO in the presence or absence of 2 mM paraquat. The results are shown in FIG. 3(b) where relaxations are expressed as a percent of the initial phenylephrine-induced contraction.

[12] = tested on: RAW-264.7 monocyte macrophage cells; assay: LDH release from macrophages (cytotoxicity); format: cell-based; conditions: conclusion of Background Example 4
Method: The RAW-264.7 monocyte macrophage cells line (TIB-71) was purchased from the American Type Culture Collection (Manassas, Va.). The cells were grown in T-75 flasks containing DMEM (Gibco-BRL, Grand Island, N.Y.) supplemented with 1 mM pyruvate, 4.5 g/L glucose and […] fetal bovine serum Macrophages were plated at 2.0×10^4 cells/well in 24-well plates and experiments were performed when cells were near confluence. Macrophages were immunostimulated with 50 ng/ml lipopolysaccharide (LPS) from E. coli serotype 0111:B4 (Signia, St. Louis, Mo.) and 50 U/ml recombinant mouse interferon gamma (INF-γ, R&D Systems, Minneapolis,Minn.). Macrophages were used between passages 2-8. Cell cultures were kept in a 37° C. incubator with air and 5% carbon dioxide.
NOS2 was induced in RAW cells using a mixture of interferon-γ and lipopolysaccharide (LPS) referred to as "cytomix." Unstimulated (basal) and activated (cytomix) macrophages were treated with 0.1 mM paraquat or not treated with paraquat and cytotoxicity and NO production were assessed at 24 hours.
Cell injury was assessed by measuring LDH release.
To further exclude the role of peroxynitrite, macrophages were treated with increasing concentrations of the NO-donor, DETA NONOate in the presence of 0.1 mM paraquat. Macrophage cytotoxicity and NO release were assessed 24 hours after treatments. Cell injury was assessed by measuring LDH release.

[13] = 0.1 milligram per kilogram per minute IV
[14] = 0.1 mg/kg/minute, after L-NMMA stopped

T1 sequence (P29476 whole entry): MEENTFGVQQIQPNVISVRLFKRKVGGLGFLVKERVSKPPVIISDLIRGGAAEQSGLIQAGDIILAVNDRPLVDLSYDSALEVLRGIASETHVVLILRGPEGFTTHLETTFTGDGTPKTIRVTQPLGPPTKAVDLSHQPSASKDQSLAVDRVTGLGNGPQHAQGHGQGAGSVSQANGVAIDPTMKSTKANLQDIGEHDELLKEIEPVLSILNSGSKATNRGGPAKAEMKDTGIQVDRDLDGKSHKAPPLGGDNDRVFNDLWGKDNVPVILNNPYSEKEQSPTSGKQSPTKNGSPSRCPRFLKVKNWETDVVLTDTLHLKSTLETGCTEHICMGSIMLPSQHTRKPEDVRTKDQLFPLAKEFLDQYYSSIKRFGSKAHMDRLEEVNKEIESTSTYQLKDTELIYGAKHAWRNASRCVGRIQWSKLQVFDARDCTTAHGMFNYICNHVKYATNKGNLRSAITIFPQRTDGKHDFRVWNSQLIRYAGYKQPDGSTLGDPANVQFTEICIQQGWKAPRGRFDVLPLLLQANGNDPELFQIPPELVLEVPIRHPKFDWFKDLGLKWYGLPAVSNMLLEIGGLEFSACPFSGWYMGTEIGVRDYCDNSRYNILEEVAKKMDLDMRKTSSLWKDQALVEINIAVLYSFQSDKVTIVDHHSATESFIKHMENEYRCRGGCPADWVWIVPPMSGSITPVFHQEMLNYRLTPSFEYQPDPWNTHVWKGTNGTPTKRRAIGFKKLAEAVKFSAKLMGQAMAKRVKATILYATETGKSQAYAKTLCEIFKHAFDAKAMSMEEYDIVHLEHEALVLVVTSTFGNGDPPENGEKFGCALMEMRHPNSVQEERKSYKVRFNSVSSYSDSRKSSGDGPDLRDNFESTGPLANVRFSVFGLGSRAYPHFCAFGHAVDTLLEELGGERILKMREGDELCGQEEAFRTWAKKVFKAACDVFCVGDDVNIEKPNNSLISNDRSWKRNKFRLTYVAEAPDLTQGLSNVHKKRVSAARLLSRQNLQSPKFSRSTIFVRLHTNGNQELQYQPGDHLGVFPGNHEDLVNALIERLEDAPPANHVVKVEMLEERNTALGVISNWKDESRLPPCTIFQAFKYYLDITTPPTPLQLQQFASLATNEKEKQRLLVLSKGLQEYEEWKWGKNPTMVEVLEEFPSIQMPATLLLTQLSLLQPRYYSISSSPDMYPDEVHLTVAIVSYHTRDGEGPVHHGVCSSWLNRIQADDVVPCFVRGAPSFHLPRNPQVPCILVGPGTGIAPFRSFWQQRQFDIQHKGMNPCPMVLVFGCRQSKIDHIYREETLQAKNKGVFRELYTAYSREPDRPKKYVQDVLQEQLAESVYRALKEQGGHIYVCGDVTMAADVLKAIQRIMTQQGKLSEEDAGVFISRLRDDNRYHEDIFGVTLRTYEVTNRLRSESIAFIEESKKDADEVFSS

COC(=O)[C@@](N)(CCCNC(=N)N[N+](=O)[O-])CCON=O
therapeutic results [1]: Therapeutic results are also obtained

Cc1ccc2c(=O)c3cccc(CC(=O)O)c3oc2c1C [5,6 MEXAA, 5,6 dimethylxanthemone-4-acetic acid]
nitric oxide synthase expression in the tumor on biopsy (solid tumor): increase in nitric oxide synthase expression in the tumor

COC(=O)[C@@H](N)CCCNC(=N)N[N+](=O)[O-] [L-NAME, L-nitroarginine, methyl ester]
effect on paraquat-stimulated NADPH oxidation [2]: completely inhibited paraquat-stimulated NADPH oxidation
effect on basal NADPH oxidation [2]: little effect on basal NADPH oxidation
protection from paraquat toxicity (LDH release) [3]: dose-dependent protection from paraquat toxicity
inhibition at 2000 µM (Rabbit aortic rings [4]): > 90%
symptoms ([5]; over the day): symptoms improve over the day
arteriolar PO2 ([5]; increases from 60, over the day): 85 mm Hg
symptoms of stroke [6, 13]: symptoms do not improve
blood pressure during L-NAME ([6]; L-NAME 0.1 milligram per kilogram per minute IV): 220/110
ejection fraction on L-NAME ([7]; 0.5 milligrams per kilogram per minute, two weeks, from 35%): 50%
improvement / consciousness [8]: regains consciousness

CNC(=N)NCCC[C@H](N)C(=O)O [L-NMMA, L-N-methylarginine]
effect on paraquat-stimulated NADPH oxidation [2]: partially blocked paraquat-induced NADPH oxidation
effect on basal NADPH oxidation [2]: small increase in basal NADPH oxidation
protection from paraquat toxicity (LDH release) [3]: not L-NMMA, produced a dose-dependent protection from paraquat toxicity
pulmonary hypertension and cardiac output ([9]; L-NMMA infusion 10 mg/kg/hr.): profound pulmonary hypertension and a fall in cardiac output
improvement / consciousness [8]: without improvement
weaning from the ventilator [10]: weaned from the ventilator over the following day

COC(=O)[C@@](N)(CCCNC(=N)N[N+](=O)[O-])CCO[N+](=O)[O-] [NO-derivatized L-NAME]
symptoms of stroke [6, 13]: symptoms of confusion abate and motion returns to the arm
blood pressure after switch to NO derivatized L-NAME ([6]; 0.1 milligram per kilogram per minute IV, from 220/110): 170/100
cardiac output [9, 14]: Cardiac output normalizes
pulmonary pressure [9, 14]: Pulmonary pressure normalizes
blood pressure ([9]; 0.1 mg/kg/minute, 70/50 at presentation): 100/80

COc1cccc2c1C(=O)c1c(O)c3c(c(O)c1C2=O)C[C@@](O)(C(=O)CO)C[C@@H]3O[C@H]1C[C@H](N)[C@H](O)[C@H](C)O1 [adriamycin]
adverse effect of adriamycin ([7]; standard regimen): light sensitivity and shortness of breath
ejection fraction after adriamycin ([7]; standard regimen, echocardiogram): 35%
tumor regression (breast cancer; adriamycin after temperature-sensitive liposome encapsulated nitric oxide synthase released by local heat, six cycles): the tumor is shown to regress after six cycles of therapy
tumor response to adriamycin alone (breast cancer; standard regimen including adriamycin): The tumor fails to respond

c1cc[n+]2c(c1)-c1cccc[n+]1CC2 [diquat]
tumor regression (breast cancer; diquat 2 mg per day for six days after liposome encapsulated nitric oxide synthase): The tumor is shown to regress

nitric oxide [NO]
effect on exogenously added NO-induced relaxation (Rabbit aortic rings [11]): NO still works in a system where NO is inhibited and superoxide is generated
cell killing / amelioration of toxicity, conclusion [12]: toxicity can be ameliorated by putting NO back into the system
